From patent US10765114B2, “4-amino-6-(pyridyl and 2-substitutedphenyl)-picolinates and 6-amino-2-(pyridyl and 2-substitutedphenyl)-pyrimidine-4-carboxylates and their use as herbicides” (Dow AgroSciences LLC, priority 2013, dated 2020)

System: Key Broadleaf Weed and Crop Species
Assay: Post-Emergent Test II (Table 5)
Format: in vivo
Details: Abutilon theophrasti, post-emergence, 336 h, ABUTH: velvetleaf (Abutilon theophrasti), application rate 70 (kg ai/ha; footnote: g ai/ha), read-out: Visual Growth Reduction (%) 14 Days After Application ABUTH
Method in brief: (§1)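 Seedlings are raised 7-21 days in Metro-Mix 360 (pH 6.0-6.8) under greenhouse conditions, then sprayed at the first or second true leaf stage. Application is 187 L/ha, with serial rates down to 1/16× of the highest. Plants are subirrigated, and percent injury is rated visually after 14 days.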

SMILES	pest or weed control at 70 g/ha [%]
COC(=O)c1nc(-c2ccc(Cl)c(F)c2CF)cc(N)c1Cl [Compound 78, methyl 4-amino-3-chloro-6-(4-chloro-3-fluoro-2-(fluoromethyl)phenyl)picolinate]	95 to 100

Same assay, conditions: Abutilon theophrasti, post-emergence, 336 h, ABUTH: velvetleaf (Abutilon theophrasti), application rate 140 (kg ai/ha; footnote: g ai/ha), read-out: Visual Growth Reduction (%) 14 Days After Application ABUTH

SMILES	pest or weed control at 140 g/ha [%]
COC(=O)c1nc(-c2ccc(Cl)c(F)c2CF)cc(N)c1Cl [Compound 78, methyl 4-amino-3-chloro-6-(4-chloro-3-fluoro-2-(fluoromethyl)phenyl)picolinate]	95 to 100

Same assay, conditions: Amaranthus retroflexus, post-emergence, 336 h, AMARE: redroot pigweed (Amaranthus retroflexus), application rate 70 (kg ai/ha; footnote: g ai/ha), read-out: Visual Growth Reduction (%) 14 Days After Application AMARE

SMILES	pest or weed control at 70 g/ha [%]
COC(=O)c1nc(-c2ccc(Cl)c(F)c2CF)cc(N)c1Cl [Compound 78, methyl 4-amino-3-chloro-6-(4-chloro-3-fluoro-2-(fluoromethyl)phenyl)picolinate]	95 to 100

Same assay, conditions: Amaranthus retroflexus, post-emergence, 336 h, AMARE: redroot pigweed (Amaranthus retroflexus), application rate 140 (kg ai/ha; footnote: g ai/ha), read-out: Visual Growth Reduction (%) 14 Days After Application AMARE

SMILES	pest or weed control at 140 g/ha [%]
COC(=O)c1nc(-c2ccc(Cl)c(F)c2CF)cc(N)c1Cl [Compound 78, methyl 4-amino-3-chloro-6-(4-chloro-3-fluoro-2-(fluoromethyl)phenyl)picolinate]	95 to 100

Same assay, conditions: Brassica napus, post-emergence, 336 h, BRSSS: oilseed rape, canola (Brassica napus), application rate 70 (kg ai/ha; footnote: g ai/ha), read-out: Visual Growth Reduction (%) 14 Days After Application BRSSS

SMILES	pest or weed control at 70 g/ha [%]
COC(=O)c1nc(-c2ccc(Cl)c(F)c2CF)cc(N)c1Cl [Compound 78, methyl 4-amino-3-chloro-6-(4-chloro-3-fluoro-2-(fluoromethyl)phenyl)picolinate]	95 to 100

Same assay, conditions: Brassica napus, post-emergence, 336 h, BRSSS: oilseed rape, canola (Brassica napus), application rate 140 (kg ai/ha; footnote: g ai/ha), read-out: Visual Growth Reduction (%) 14 Days After Application BRSSS

SMILES	pest or weed control at 140 g/ha [%]
COC(=O)c1nc(-c2ccc(Cl)c(F)c2CF)cc(N)c1Cl [Compound 78, methyl 4-amino-3-chloro-6-(4-chloro-3-fluoro-2-(fluoromethyl)phenyl)picolinate]	95 to 100

Same assay, conditions: Chenopodium album, post-emergence, 336 h, CHEAL: lambsquarters (Chenopodium album), application rate 70 (kg ai/ha; footnote: g ai/ha), read-out: Visual Growth Reduction (%) 14 Days After Application CHEAL

SMILES	pest or weed control at 70 g/ha [%]
COC(=O)c1nc(-c2ccc(Cl)c(F)c2CF)cc(N)c1Cl [Compound 78, methyl 4-amino-3-chloro-6-(4-chloro-3-fluoro-2-(fluoromethyl)phenyl)picolinate]	95 to 100

Same assay, conditions: Chenopodium album, post-emergence, 336 h, CHEAL: lambsquarters (Chenopodium album), application rate 140 (kg ai/ha; footnote: g ai/ha), read-out: Visual Growth Reduction (%) 14 Days After Application CHEAL

SMILES	pest or weed control at 140 g/ha [%]
COC(=O)c1nc(-c2ccc(Cl)c(F)c2CF)cc(N)c1Cl [Compound 78, methyl 4-amino-3-chloro-6-(4-chloro-3-fluoro-2-(fluoromethyl)phenyl)picolinate]	95 to 100

Same assay, conditions: Euphorbia heterophylla, post-emergence, 336 h, EPHHL: wild poinsettia (Euphorbia heterophylla), application rate 70 (kg ai/ha; footnote: g ai/ha), read-out: Visual Growth Reduction (%) 14 Days After Application EPHHL

SMILES	pest or weed control at 70 g/ha [%]
COC(=O)c1nc(-c2ccc(Cl)c(F)c2CF)cc(N)c1Cl [Compound 78, methyl 4-amino-3-chloro-6-(4-chloro-3-fluoro-2-(fluoromethyl)phenyl)picolinate]	0 to 29

Same assay, conditions: Euphorbia heterophylla, post-emergence, 336 h, EPHHL: wild poinsettia (Euphorbia heterophylla), application rate 140 (kg ai/ha; footnote: g ai/ha), read-out: Visual Growth Reduction (%) 14 Days After Application EPHHL

SMILES	pest or weed control at 140 g/ha [%]
COC(=O)c1nc(-c2ccc(Cl)c(F)c2CF)cc(N)c1Cl [Compound 78, methyl 4-amino-3-chloro-6-(4-chloro-3-fluoro-2-(fluoromethyl)phenyl)picolinate]	0 to 29

Same assay, conditions: Helianthus annuus, post-emergence, 336 h, HELAN: sunflower (Helianthus annuus), application rate 70 (kg ai/ha; footnote: g ai/ha), read-out: Visual Growth Reduction (%) 14 Days After Application HELAN

SMILES	pest or weed control at 70 g/ha [%]
COC(=O)c1nc(-c2ccc(Cl)c(F)c2CF)cc(N)c1Cl [Compound 78, methyl 4-amino-3-chloro-6-(4-chloro-3-fluoro-2-(fluoromethyl)phenyl)picolinate]	85 to 94

Same assay, conditions: Helianthus annuus, post-emergence, 336 h, HELAN: sunflower (Helianthus annuus), application rate 140 (kg ai/ha; footnote: g ai/ha), read-out: Visual Growth Reduction (%) 14 Days After Application HELAN

SMILES	pest or weed control at 140 g/ha [%]
COC(=O)c1nc(-c2ccc(Cl)c(F)c2CF)cc(N)c1Cl [Compound 78, methyl 4-amino-3-chloro-6-(4-chloro-3-fluoro-2-(fluoromethyl)phenyl)picolinate]	85 to 94

Same assay, conditions: Viola tricolor, post-emergence, 336 h, VIOTR: wild pansy (Viola tricolor), application rate 70 (kg ai/ha; footnote: g ai/ha), read-out: Visual Growth Reduction (%) 14 Days After Application VIOTR

SMILES	pest or weed control at 70 g/ha [%]
COC(=O)c1nc(-c2ccc(Cl)c(F)c2CF)cc(N)c1Cl [Compound 78, methyl 4-amino-3-chloro-6-(4-chloro-3-fluoro-2-(fluoromethyl)phenyl)picolinate]	0 to 29

Same assay, conditions: Viola tricolor, post-emergence, 336 h, VIOTR: wild pansy (Viola tricolor), application rate 140 (kg ai/ha; footnote: g ai/ha), read-out: Visual Growth Reduction (%) 14 Days After Application VIOTR

SMILES	pest or weed control at 140 g/ha [%]
COC(=O)c1nc(-c2ccc(Cl)c(F)c2CF)cc(N)c1Cl [Compound 78, methyl 4-amino-3-chloro-6-(4-chloro-3-fluoro-2-(fluoromethyl)phenyl)picolinate]	0 to 29

System: Key Grass and Sedge Weeds as well as Grass Crops
Assay: Post-Emergent Test II (Table 6)
Format: in vivo
Details: post-emergence, 336 h, CYPSS, 70 g ai/ha, 14 days after application, read-out: Visual Growth Reduction (%) 14 Days After Application CYPSS
Method in brief: as §1

SMILES	pest or weed control at 70 g/ha [%]
COC(=O)c1nc(-c2ccc(Cl)c(F)c2CF)cc(N)c1Cl [Compound 78, methyl 4-amino-3-chloro-6-(4-chloro-3-fluoro-2-(fluoromethyl)phenyl)picolinate]	45 to 59

Same assay, conditions: post-emergence, 336 h, CYPSS, 140 g ai/ha, 14 days after application, read-out: Visual Growth Reduction (%) 14 Days After Application CYPSS

SMILES	pest or weed control at 140 g/ha [%]
COC(=O)c1nc(-c2ccc(Cl)c(F)c2CF)cc(N)c1Cl [Compound 78, methyl 4-amino-3-chloro-6-(4-chloro-3-fluoro-2-(fluoromethyl)phenyl)picolinate]	45 to 59

Same assay, conditions: post-emergence, 336 h, DIGSA: crabgrass (Digitaria sanguinalis), 70 g ai/ha, 14 days after application, read-out: Visual Growth Reduction (%) 14 Days After Application DIGSA

SMILES	pest or weed control at 70 g/ha [%]
COC(=O)c1nc(-c2ccc(Cl)c(F)c2CF)cc(N)c1Cl [Compound 78, methyl 4-amino-3-chloro-6-(4-chloro-3-fluoro-2-(fluoromethyl)phenyl)picolinate]	0 to 29

Same assay, conditions: post-emergence, 336 h, DIGSA: crabgrass (Digitaria sanguinalis), 140 g ai/ha, 14 days after application, read-out: Visual Growth Reduction (%) 14 Days After Application DIGSA

SMILES	pest or weed control at 140 g/ha [%]
COC(=O)c1nc(-c2ccc(Cl)c(F)c2CF)cc(N)c1Cl [Compound 78, methyl 4-amino-3-chloro-6-(4-chloro-3-fluoro-2-(fluoromethyl)phenyl)picolinate]	0 to 29

Same assay, conditions: post-emergence, 336 h, ECHSS, 70 g ai/ha, 14 days after application, read-out: Visual Growth Reduction (%) 14 Days After Application ECHSS

SMILES	pest or weed control at 70 g/ha [%]
COC(=O)c1nc(-c2ccc(Cl)c(F)c2CF)cc(N)c1Cl [Compound 78, methyl 4-amino-3-chloro-6-(4-chloro-3-fluoro-2-(fluoromethyl)phenyl)picolinate]	0 to 29

Same assay, conditions: post-emergence, 336 h, ECHSS, 140 g ai/ha, 14 days after application, read-out: Visual Growth Reduction (%) 14 Days After Application ECHSS

SMILES	pest or weed control at 140 g/ha [%]
COC(=O)c1nc(-c2ccc(Cl)c(F)c2CF)cc(N)c1Cl [Compound 78, methyl 4-amino-3-chloro-6-(4-chloro-3-fluoro-2-(fluoromethyl)phenyl)picolinate]	0 to 29

Same assay, conditions: post-emergence, 336 h, ORYSS (crop), 70 g ai/ha, 14 days after application, read-out: Visual Growth Reduction (%) 14 Days After Application ORYSS

SMILES	pest or weed control at 70 g/ha [%]
COC(=O)c1nc(-c2ccc(Cl)c(F)c2CF)cc(N)c1Cl [Compound 78, methyl 4-amino-3-chloro-6-(4-chloro-3-fluoro-2-(fluoromethyl)phenyl)picolinate]	0 to 29

Same assay, conditions: post-emergence, 336 h, ORYSS (crop), 140 g ai/ha, 14 days after application, read-out: Visual Growth Reduction (%) 14 Days After Application ORYSS

SMILES	pest or weed control at 140 g/ha [%]
COC(=O)c1nc(-c2ccc(Cl)c(F)c2CF)cc(N)c1Cl [Compound 78, methyl 4-amino-3-chloro-6-(4-chloro-3-fluoro-2-(fluoromethyl)phenyl)picolinate]	0 to 29

Same assay, conditions: post-emergence, 336 h, SETFA: giant foxtail (Setaria faberi), 70 g ai/ha, 14 days after application, read-out: Visual Growth Reduction (%) 14 Days After Application SETFA

SMILES	pest or weed control at 70 g/ha [%]
COC(=O)c1nc(-c2ccc(Cl)c(F)c2CF)cc(N)c1Cl [Compound 78, methyl 4-amino-3-chloro-6-(4-chloro-3-fluoro-2-(fluoromethyl)phenyl)picolinate]	0 to 29

Same assay, conditions: post-emergence, 336 h, SETFA: giant foxtail (Setaria faberi), 140 g ai/ha, 14 days after application, read-out: Visual Growth Reduction (%) 14 Days After Application SETFA

SMILES	pest or weed control at 140 g/ha [%]
COC(=O)c1nc(-c2ccc(Cl)c(F)c2CF)cc(N)c1Cl [Compound 78, methyl 4-amino-3-chloro-6-(4-chloro-3-fluoro-2-(fluoromethyl)phenyl)picolinate]	0 to 29

Same assay, conditions: post-emergence, 336 h, SORVU: grain sorghum (Sorghum vulgare), 70 g ai/ha, 14 days after application, read-out: Visual Growth Reduction (%) 14 Days After Application SORVU

SMILES	pest or weed control at 70 g/ha [%]
COC(=O)c1nc(-c2ccc(Cl)c(F)c2CF)cc(N)c1Cl [Compound 78, methyl 4-amino-3-chloro-6-(4-chloro-3-fluoro-2-(fluoromethyl)phenyl)picolinate]	0 to 29

Same assay, conditions: post-emergence, 336 h, SORVU: grain sorghum (Sorghum vulgare), 140 g ai/ha, 14 days after application, read-out: Visual Growth Reduction (%) 14 Days After Application SORVU

SMILES	pest or weed control at 140 g/ha [%]
COC(=O)c1nc(-c2ccc(Cl)c(F)c2CF)cc(N)c1Cl [Compound 78, methyl 4-amino-3-chloro-6-(4-chloro-3-fluoro-2-(fluoromethyl)phenyl)picolinate]	0 to 29

Same assay, conditions: post-emergence, 336 h, TRZSS (crop), 70 g ai/ha, 14 days after application, read-out: Visual Growth Reduction (%) 14 Days After Application TRZSS

SMILES	pest or weed control at 70 g/ha [%]
COC(=O)c1nc(-c2ccc(Cl)c(F)c2CF)cc(N)c1Cl [Compound 78, methyl 4-amino-3-chloro-6-(4-chloro-3-fluoro-2-(fluoromethyl)phenyl)picolinate]	0 to 29

Same assay, conditions: post-emergence, 336 h, TRZSS (crop), 140 g ai/ha, 14 days after application, read-out: Visual Growth Reduction (%) 14 Days After Application TRZSS

SMILES	pest or weed control at 140 g/ha [%]
COC(=O)c1nc(-c2ccc(Cl)c(F)c2CF)cc(N)c1Cl [Compound 78, methyl 4-amino-3-chloro-6-(4-chloro-3-fluoro-2-(fluoromethyl)phenyl)picolinate]	0 to 29

Same assay, conditions: post-emergence, 336 h, ZEAMX: maize, corn (Zea mays), 70 g ai/ha, 14 days after application, read-out: Visual Growth Reduction (%) 14 Days After Application ZEAMX

SMILES	pest or weed control at 70 g/ha [%]
COC(=O)c1nc(-c2ccc(Cl)c(F)c2CF)cc(N)c1Cl [Compound 78, methyl 4-amino-3-chloro-6-(4-chloro-3-fluoro-2-(fluoromethyl)phenyl)picolinate]	0 to 29

Same assay, conditions: post-emergence, 336 h, ZEAMX: maize, corn (Zea mays), 140 g ai/ha, 14 days after application, read-out: Visual Growth Reduction (%) 14 Days After Application ZEAMX

SMILES	pest or weed control at 140 g/ha [%]
COC(=O)c1nc(-c2ccc(Cl)c(F)c2CF)cc(N)c1Cl [Compound 78, methyl 4-amino-3-chloro-6-(4-chloro-3-fluoro-2-(fluoromethyl)phenyl)picolinate]	0 to 29
